{
  "source": "patent US9426996B2",
  "about": "“Use of benzoxaboroles as volatile antimicrobial agents on meats, plants, or plant parts” (AgroFresh Inc., priority 2013, dated 2016)",
  "key": {"[1]": {"test_system": "Fusarium sambucinum", "test": "in vivo volatile assay on potato slices", "conditions": "10 mg/L, 21° C. for 3 days", "protocol": "To test the effect of Compound A (FIG. 1) on vegetables, potato, onion and squash were obtained from a local store, and the surface sterilized with 0.825% sodium hypochlorite (NaOCl). A slice of potato or two leaves of onion were placed in a sterile Petri plate, while whole squash were placed in a sterile 10.8-cup SnapWare airtight container (Model #109842). Each slice of potato was inoculated with 20 μL of a 1×10^5 spores/mL Fusarium sambucinum suspension, while onions were inoculated with 20 μL of a 1×10^6 spores/mL Botrytis cinerea suspension. For inoculation of squash, a small core was removed, and a mycelial plug of Phytophthora capsici was inserted and capped with the core. Compound A was diluted in acetone, and added to a 42.5 mm Whatman #1 filter disk (Cat. No. 1001-042) attached to the inner side of the lid at a rate to achieve a final headspace concentration of 10 mg/L. The acetone was permitted to evaporate for 5 minutes before parafilm sealing the plates or closing the airtight containers. The vegetables were incubated at 21° C. for 3 days, and evaluated for mycelial growth, dry rot, and water-soaked appearance (mm diameter) with results summarized in Table 13."}, "[2]": {"test_system": "Salmonella enterica", "test": "in vivo volatile bioassay on fresh beef", "conditions": "S. enterica from beef; 100 mg/L headspace; 2 days at 21° C.", "protocol": "(§1) In order to assess the in vivo activity of volatile antimicrobial Compound A, a volatile bioassay is developed to evaluate the control of Escherichia coli and Salmonella enterica on fresh beef. The beef is washed to remove any natural inoculum by rinsing in warm water for 2 minutes. Two strips, single layer, are placed in a sterile 10.8-cup SnapWare airtight container (Model #109842).\n(§2) Each strip is inoculated on the surface by placing 20 μL of either E. coli or S. enterica cell suspensions that are adjusted to an optical density of 0.35 (600 nm), and further diluted 1/10. For determination of efficacy, Compound A powder is introduced into the container with a sublimation device (copper tube heated to 200° C. with fan flow at 0.5 liters per minute (L/min)) at a rate required to achieve a final headspace concentration of 100 mg/L. The containers and their contents are then incubated for 2 days at 21° C. After treatment, the beef is washed, and the wash is collected, serially diluted, plated on nutrient agar, and then incubated for an additional 24 hours at 37° C. Bacterial colonies are counted and expressed as colony forming units (CFU/mL), with the log reduction calculated relative to the control."}, "[3]": {"test_system": "Escherichia coli", "test": "in vivo volatile bioassay on fresh beef", "protocol": "as §1, §2"}, "[4]": {"test_system": "Penicillium digitatum", "test": "in vivo sublimation bioassay on fruit, 10 mg/L (Example 22)", "conditions": "Orange; 10 mg/L sublimed; three day treatment plus three days at 21° C.", "protocol": "(§3) To assess the in vivo activity of volatile antimicrobial Compound A (FIG. 1) in fruit, a volatile bioassay is developed using apple, pear, orange, strawberry, grape and blueberry. Two apples, 2 oranges, 2 pears, 8 strawberries, 16 grapes or 30 blueberries (per replicate, in duplicate) are placed in a clamshell with the stem end facing up for all fruits except for strawberry (stem end facing downwards). A fresh wound is inoculated with 20 μL 1×10^6 per mL Penicillium expansum spore suspension (apple and pear), 20 μL 1×10^6 per mL Penicillium digitatum spore suspension (orange), and 20 μL (strawberry and grape) or 10 μL (blueberry) of 1×10^6 per mL Botrytis cinerea spore suspension. The clamshells are placed inside a 117 L Rubbermaid storage box (Cat #2244) with lids closed. Compound A, dissolved in acetone, is pipetted onto a cotton strip, where the acetone is allowed to evaporate for five minutes, and then introduced into the container by a sublimation device (copper tube heated to 200° C. with fan flow at 0.5 L/min) to achieve a final headspace concentration of 10 mg/L. The containers are then held for three days at 21° C. After treatment, fruits are held for an additional three days at 21° C., then evaluated for disease incidence (mm diameter of browning or water-soaked lesions) and pathogen sporulation (mm diameter) for apple, pear and orange, as well as Botrytis cinerea disease incidence (%) and severity (0 to 4) for strawberry, grape and blueberry, with results summarized in Table 21."}, "[5]": {"test_system": "Botrytis cinerea", "test": "in vivo sublimation bioassay on fruit, 10 mg/L (Example 22)", "conditions": "10 mg/L sublimed, three day treatment plus three days at 21° C.", "protocol": "as §3"}, "[6]": {"test_system": "Botrytis cinerea", "test": "in vivo dose by time volatile bioassay using strawberry", "conditions": "0.125 mg, 3-day treatment at 21° C. plus 2 days at 21° C., vs acetone only control"}, "[7]": {"test_system": "Alternaria alternata", "test": "combination treatment with 1-MCP on broccoli", "type": "in vivo", "set-up": "scale not given here", "conditions": "11 C."}, "[8]": {"test_system": "Botrytis cinerea", "test": "in vivo volatile bioassay using inoculated white carnations", "protocol": "In order to assess the in vivo activity of volatile antimicrobial Compound A on controlling Botrytis cinerea on ornamental flowers, a volatile bioassay is developed using white carnations.\nFive carnations are placed in an 800 mL jar containing 200 mL of a common commercial flower preservative. Five jars are then placed in a 117 L Rubbermaid storage box (Cat #2244). The petals are uniformly spray-inoculated with 5 mL of 1×10^5 spores/mL of Botrytis cinerea suspension. The tub is closed tightly. For treatment application, Compound A is dissolved in an aqueous 1,2-propylene glycol solution (3:1) and 5 mL of the solution is volatilized into the container using an ES-100-H SmartFog system (Reno, Nev.) through a ½″ side port that is sealed immediately after the application. The flowers are incubated for 3 days at 21° C. After storage, the flowers are evaluated for incidence based on presence of disease on flower petals relative to untreated control flowers for up to 8 days at 21° C., with results summarized in Table 12."}},
  "data": [
    {"smiles": "OB1OCc2cc(F)ccc21", "note": "[Compound A]", "values": [
      {"measurement": "Dry rot", "setting": "[1]", "result": 0, "unit": "mm"},
      {"measurement": "Mycelial growth", "setting": "[1]", "result": 0, "unit": "mm"},
      {"measurement": "Log CFU/mL", "setting": "[2]", "result": 4.95, "unit": "Log CFU/mL"},
      {"measurement": "Log CFU/mL", "setting": "[3]; E. coli from beef, 100 mg/L headspace, 2 days at 21° C.", "result": 5.09, "unit": "Log CFU/mL"},
      {"measurement": "Log reduction", "setting": "[3]; E. coli from beef, 100 mg/L, relative to the control", "result": 3.17, "unit": "log"},
      {"measurement": "reduction of E. coli in percent", "setting": "[3]; beef, 100 mg/L, relative to the control", "result": "> 99.9", "unit": "%"},
      {"measurement": "Sporulation (mm)", "setting": "[4]", "result": 8.55, "unit": "mm"},
      {"measurement": "Water soaked lesion", "setting": "[4]", "result": 3.04, "unit": "mm"},
      {"measurement": "Incidence (%)", "setting": "[5]; Blueberry", "result": 5, "unit": "%"},
      {"measurement": "Severity (0-4)", "setting": "[5]; Blueberry", "result": 0.03},
      {"measurement": "Incidence (%)", "setting": "[5]; Grape", "result": 26.7, "unit": "%"},
      {"measurement": "Severity (0-4)", "setting": "[5]; Grape", "result": 0.1},
      {"measurement": "Incidence (%)", "setting": "[5]; Strawberry", "result": 18.8, "unit": "%"},
      {"measurement": "Severity (0-4)", "setting": "[5]; Strawberry", "result": 0.09},
      {"measurement": "in vivo inhibition of Botrytis cinerea", "setting": "[6]", "result": 100, "unit": "%"},
      {"measurement": "Color Score", "setting": "[7]; 0.4 mg/L", "result": 1.75},
      {"measurement": "Severity", "setting": "[7]; 0.4 mg/L", "result": 0.00},
      {"measurement": "Color Score", "setting": "[7]; 2 mg/L", "result": 2.11},
      {"measurement": "Severity", "setting": "[7]; 2 mg/L", "result": 0.00},
      {"measurement": "Disease incidence (%) on Petals", "setting": "[8]; 0.04 mg/L, Day 0", "result": 0, "unit": "%"},
      {"measurement": "Disease incidence (%) on Petals", "setting": "[8]; 0.04 mg/L, Day 1", "result": 0, "unit": "%"},
      {"measurement": "Disease incidence (%) on Petals", "setting": "[8]; 0.04 mg/L, Day 2", "result": 16, "unit": "%"},
      {"measurement": "Disease incidence (%) on Petals", "setting": "[8]; 0.04 mg/L, Day 3", "result": 40, "unit": "%"},
      {"measurement": "Disease incidence (%) on Petals", "setting": "[8]; 0.04 mg/L, Day 8", "result": 92, "unit": "%"},
      {"measurement": "Disease incidence (%) on Petals", "setting": "[8]; 0.2 mg/L, Day 0", "result": 0, "unit": "%"},
      {"measurement": "Disease incidence (%) on Petals", "setting": "[8]; 0.2 mg/L, Day 1", "result": 8, "unit": "%"},
      {"measurement": "Disease incidence (%) on Petals", "setting": "[8]; 0.2 mg/L, Day 2", "result": 20, "unit": "%"},
      {"measurement": "Disease incidence (%) on Petals", "setting": "[8]; 0.2 mg/L, Day 3", "result": 16, "unit": "%"},
      {"measurement": "Disease incidence (%) on Petals", "setting": "[8]; 0.2 mg/L, Day 8", "result": 36, "unit": "%"},
      {"measurement": "Disease incidence (%) on Petals", "setting": "[8]; 1 mg/L, Day 0", "result": 0, "unit": "%"},
      {"measurement": "Disease incidence (%) on Petals", "setting": "[8]; 1 mg/L, Day 1", "result": 0, "unit": "%"},
      {"measurement": "Disease incidence (%) on Petals", "setting": "[8]; 1 mg/L, Day 2", "result": 0, "unit": "%"},
      {"measurement": "Disease incidence (%) on Petals", "setting": "[8]; 1 mg/L, Day 3", "result": 4, "unit": "%"},
      {"measurement": "Disease incidence (%) on Petals", "setting": "[8]; 1 mg/L, Day 8", "result": 16, "unit": "%"}
    ]}
  ]
}
